We go through eight molecules from article PMC12257394, “Design, Synthesis, and Biological Evaluation of Ferrocenyl–Cyclo-(Gly‑L‑Pro) Hybrids Sensitizing Multidrug-Resistant Cancer Cells to Anticancer Agents” (ACS Medicinal Chemistry Letters, 2025).

The test system of series [1] is SW620 cells. Description: Neutral red uptake viability assay, SW620. The class given is cell-based, human. Conditions: SW620, substance alone (xlsx), read-out: SW620 IC50. The procedure:
(§1) To evaluate this aspect, we investigated the viability of SW620 colon cancer cells and their multidrug-resistant variants (overexpressing ABCB1, ABCC1, and ABCG2) exposed to 1 and 10 μM 4a–e using a neutral red uptake assay (Table ). In general, compounds 4a–e exerted little or no cytotoxic effect on either SW620 or multidrug-resistant sublines even at 10 μM, with the remarkable exception of SW620C (cisplatin-selected variant of SW620) cells, which turned out to be relatively susceptible toward ferrocenyl 4a–c. […] This trend may reflect steric or electronic contributions to cellular uptake or interaction with intracellular targets. […] However, since E/Z isomeric data are currently available only for compound 4c, this hypothesis requires validation. To quantify this effect, IC50 values were determined (Table ). […]
(§2) The normal lung fibroblast MRC-5 and colorectal adenocarcinoma SW620 cell lines used in this experiment were purchased from American Type Culture Collection (USA) via LGC […]
(§3) Standards. Multidrug-resistant variants of SW620 cells were developed in our laboratory as described previously.10, 11 All cells were cultured under standard conditions (37°C, 5% CO2, 100% humidity) in high-glucose DMEM supplemented with GlutaMaxTM, HEPES (ThermoFisher Scientific, USA), and 10% fetal bovine serum (EURx, Poland). Cells were routinely tested for potential Mycoplasma contamination using the MycoProbe Mycoplasma Detection kit (R&D System, USA).
(§4) In total, 104 cells in 100 µL of complete medium were plated per well of a 96-well plate and left overnight to allow cells to adhere to the surface. Then, the cells were exposed to a desired concentration of tested compound(s). Stock solutions were prepared in DMSO and used immediately. The final DMSO concentration was constant and nontoxic (0.1% v/v). After 70-h incubation, neutral red was added to the final concentration of 1 mM. After another 2 h, the medium was aspirated, and cells were washed twice with PBS. Dye was released using 100 µL of a solubilizer (1% acetic acid in 50% ethanol) on an orbital shaker (10 min). Absorbance was read at 540 nm using EnVision Multilabel Plate Reader (Perkin Elmer, USA). Results were expressed as % of control. The IC50 parameters were calculated using GraphPad Prism version 10 (GraphPad Software, Boston, Massachusetts USA). […]
(§5) All experiments were performed in triplicate (n = 3).

Series [2] has as its system SW620 cells. Briefly: MDR reversal assay (coadministration with anticancer drug), SW620. The class given is cell-based, human. Conditions: SW620, drug alone, n = 3.
Excerpt: (§6) We investigated the potency of 4a–e to inhibit ABC transporters (ABCB1, ABCC1, and ABCG2) by determining their enhancement of reversal potency (ERP) values. ERP represents fold changes in the IC50 values of anticancer drugs in multidrug-resistant cancer sublines (ABCB1-overexpressing SW620D, SW620E, and SW620V; ABCC1-overexpressing SW620M; ABCG2-overexpressing SW620C and SW620Mito) exposed to a combination of the investigated compounds and anticancer agents at equimolar concentrations, compared with values obtained with drugs alone (Tables S2 and S3 and Figure ).
as §3
(§7) In total, 104 cells in 100 µL of complete medium were plated per well of a 96-well plate and left overnight to allow cells to adhere to the surface. Then, the cells were exposed to a desired concentration of tested compound(s). Stock solutions were prepared in DMSO and used immediately. The final DMSO concentration was constant and nontoxic (0.1% v/v). After 70-h incubation, neutral red was added to the final concentration of 1 mM. After another 2 h, the medium was aspirated, and cells were washed twice with PBS. Dye was released using 100 µL of a solubilizer (1% acetic acid in 50% ethanol) on an orbital shaker (10 min). Absorbance was read at 540 nm using EnVision Multilabel Plate Reader (Perkin Elmer, USA). Results were expressed as % of control. The IC50 parameters were calculated using GraphPad Prism version 10 (GraphPad Software, Boston, Massachusetts USA).
(§8) The enhancement of reversal potency (ERP) value determination
(§9) For MDR reversal assays, cytotoxic agents were co-administered with compounds 4a–4e at equimolar concentrations in a range of 10 nM to 100 µM. IC₅₀ values were determined in ABCB1-overexpressing SW620 cell line variants. The enhancement of reversal potency (ERP) was calculated using the following formula: ERP = IC₅₀(drug)MDR / IC₅₀(drug + compound)MDR. All experiments were performed in triplicate (n = 3).

In series [3] the test system is ABCG2-overexpressing SW620C cells. Briefly: MDR reversal assay (ERP), SW620C. As to conditions: SW620C, drug alone, n = 3. Format: cell-based, human.
Excerpt: as §6, §3, §7, §8, §9

The test system of series [4] is SW620D cells (doxorubicin-resistant). Description: Neutral red uptake viability assay, SW620D. Format: cell-based, human. Conditions: Homo sapiens, substance alone (xlsx), read-out: SW620D IC50. As for the experimental part: (§10) In general, compounds 4a–e exerted little or no cytotoxic effect on either SW620 or multidrug-resistant sublines even at 10 μM, with the remarkable exception of SW620C (cisplatin-selected variant of SW620) cells, which turned out to be relatively susceptible toward ferrocenyl 4a–c. […] This trend may reflect steric or electronic contributions to cellular uptake or interaction with intracellular targets. […] However, since E/Z isomeric data are currently available only for compound 4c, this hypothesis requires validation. To quantify this effect, IC50 values were determined (Table ). […]
as §2, §3, §7, §8, §9

Series [5] concerns SW620E cells (etoposide-resistant). Briefly: Neutral red uptake viability assay, SW620E. Conditions: Homo sapiens, substance alone (xlsx), read-out: SW620E IC50. Format: cell-based, human. As for the experimental part: as §1, §2, §3, §4, §5
For series [6], the system named is ABCB1-overexpressing SW620E cells. Briefly: MDR reversal assay (ERP), SW620E. Format: cell-based, human. As to conditions: Homo sapiens; SW620E, drug alone, n = 3.
Excerpt: as §6, §3, §7, §8, §9

Series [7] has as its system SW620M cells (methotrexate-resistant). Briefly: Neutral red uptake viability assay, SW620M. Format: cell-based, human. As to conditions: Homo sapiens, substance alone (xlsx), read-out: SW620M IC50. The procedure:
as §10, §2, §3, §4, §5

In series [8] the test system is ABCC1-overexpressing SW620M cells. Briefly: MDR reversal assay (ERP), SW620M. The class given is cell-based, human. As to conditions: Homo sapiens; SW620M, drug alone, n = 3.
Excerpt: as §6, §3, §7, §8, §9

In series [9] the test system is SW620Mito cells (mitoxantrone-resistant). Briefly: Neutral red uptake viability assay, SW620Mito. Format: cell-based, human. As to conditions: Homo sapiens, substance alone (xlsx), read-out: SW620Mito IC50. As for the experimental part: as §10, §2, §3, §4, §5
The subject of series [10] is ABCG2-overexpressing SW620Mito cells. Description: MDR reversal assay (ERP), SW620Mito. The class given is cell-based, human. Conditions: Homo sapiens; SW620Mito, drug alone, n = 3.
Excerpt: as §6, §3, §7, §8, §9

The test system of the next series is MRC-5 fibroblasts. Description: Neutral red uptake viability assay, MRC-5. Format: cell-based, human. As to conditions: MRC-5, 10 μM, 72 h exposure, n = 3, ± SD. As for the experimental part: as §2, §3, §4, §5
Series [11] concerns SW620V cells (vincristine-resistant). Description: Neutral red uptake viability assay, SW620V. Format: cell-based, human. As to conditions: Homo sapiens, substance alone (xlsx), read-out: SW620V IC50. The procedure:
as §10, §2, §3, §7, §8, §9

The test system of series [12] is ABCB1-overexpressing SW620V cells. Description: MDR reversal assay (ERP), SW620V. Format: cell-based, human. Conditions: Homo sapiens; SW620V, drug alone, n = 3.
Excerpt: as §6, §3, §7, §8, §9

The subject of series [13] is ABC-overexpressing cancer cells. More on the design: method as in PMID 27326336. As to conditions: earlier finding; citation mark lost in the text, probably ref 20; cited from earlier work.

Consider `N.N.[Cl][Pt][Cl]` [Cisplatin, reference compound], for which the IC50 was 4340 nM in the series with SW620 cells [1], 4340 nM in the series with SW620 cells [2] and 27.9 µM in series [3].

`COc1cccc2c1C(=O)c1c(O)c3c(c(O)c1C2=O)C[C@@](O)(C(=O)CO)C[C@@H]3O[C@H]1C[C@H](N)[C@H](O)[C@H](C)O1` [Doxorubicin, reference compound]: the IC50 in the series with SW620 cells [1] (Homo sapiens, SW-620) came to 342 nM; in series [4] it was 4.26 µM; in the series with SW620 cells [2] (Homo sapiens, SW-620), 342 nM.

With `COc1cc([C@@H]2c3cc4c(cc3[C@@H](O[C@@H]3O[C@@H]5CO[C@@H](C)O[C@H]5[C@H](O)[C@H]3O)[C@H]3COC(=O)[C@H]23)OCO4)cc(OC)c1O` [Etoposide, reference compound], the IC50 was 2600 nM in the series with SW620 cells [1] (Homo sapiens, SW-620); 16 µM in series [5]; 2600 nM in the series on SW620 cells [2] (Homo sapiens, SW-620); 16 µM in series [6].

For `CN(Cc1cnc2nc(N)nc(N)c2n1)c1ccc(C(=O)N[C@@H](CCC(=O)O)C(=O)O)cc1` [Methotrexate, reference compound], the IC50 worked out at 6280 nM in the series with SW620 cells [1] (Homo sapiens, SW-620); 54.1 µM in series [7]; 6280 nM in the series on SW620 cells [2] (Homo sapiens, SW-620); 54.1 µM in series [8].

With `O=C1c2c(O)ccc(O)c2C(=O)c2c(NCCNCCO)ccc(NCCNCCO)c21` [Mitoxantrone, reference compound], the IC50 with SW620 cells [1] (Homo sapiens, SW-620) came to 151 nM; in [9], 6.36 µM; in the series with SW620 cells [2] (Homo sapiens, SW-620), 151 nM; in series [10] it was 6.36 µM.

Molecule `COc1ccc2c(C[C@@H]3NC(=O)[C@@H]4CCCN4C3=O)c(CC=C(C)C)[nH]c2c1` [TrpA, tryprostatin A, reference compound] had a survival rate in the series on MRC-5 fibroblasts of 97 ± 11%.

Consider `CC[C@]1(O)C[C@H]2CN(CCc3c([nH]c4ccccc34)[C@@](C(=O)OC)(c3cc4c(cc3OC)N(C=O)[C@H]3[C@@](O)(C(=O)OC)[C@H](OC(C)=O)[C@]5(CC)C=CCN6CC[C@]43[C@@H]65)C2)C1` [Vincristine, reference compound], for which the IC50 in the series with SW620 cells [1] (Homo sapiens, SW-620) was determined as 125 nM; in series [11], 24.3 µM; with SW620 cells [2] (Homo sapiens, SW-620) it was 125 nM; in [12], 24.3 µM.

Regarding `CC(C)(C)c1[nH]cnc1/C=c1\[nH]c(=O)/c(=C/c2ccccc2)[nH]c1=O` [plinabulin], the “activity against ABC-overexpressing cancer cells” value in series [13] is “inactive”.

As a reminder, the IC50 is the midpoint of a concentration-inhibition curve.
